Results published in publication PMC8041284, “Tunable Methacrylamides for Covalent Ligand Directed Release Chemistry” (Journal of the American Chemical Society, 2021).
Like-named read-outs stand apart in the source and are kept apart here.

Biological target: BTK (Homo sapiens, UniProt Q06187)
Test: biochemical
[1] = read-out: BTK inhibition (%), 0.75 uM BTK, […] probe 3l, 15 min preincubation

BTK, sequence (Q06187 402-655 limits assumed): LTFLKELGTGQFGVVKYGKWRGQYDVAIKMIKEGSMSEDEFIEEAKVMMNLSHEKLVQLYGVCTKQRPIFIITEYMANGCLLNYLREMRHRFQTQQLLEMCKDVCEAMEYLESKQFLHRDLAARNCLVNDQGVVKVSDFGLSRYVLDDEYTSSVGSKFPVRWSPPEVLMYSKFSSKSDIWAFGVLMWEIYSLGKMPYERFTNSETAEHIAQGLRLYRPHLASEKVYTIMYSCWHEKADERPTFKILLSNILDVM

C[C@@H]1CC[C@]2(C(=O)O)CC[C@]3(C)C(=CC[C@@H]4[C@@]5(C)CC[C@H](O[C@@H]6OC[C@H](O)[C@H](O)[C@H]6O)C(C)(C)[C@@H]5CC[C@]43C)[C@@H]2[C@]1(C)O [PCM-0216436]
inhibition at 10 µM [1]: 14.7%

C=CC(=O)Nc1cc2c(Nc3ccc(F)c(Cl)c3)ncnc2cc1OCCCN1CCOCC1 [PCM-0094917]
inhibition at 10 µM [1]: 93.6%

CC(C)CCNc1ncccc1C(=O)N1CCN(Cc2ccccc2)CC1 [PCM-0216256]
inhibition at 10 µM [1]: -30.1%

O=C1c2c(O)ccc(O)c2C(=O)c2c(NCCNCCO)ccc(NCCNCCO)c21 [PCM-0065547]
inhibition at 10 µM [1]: 51%

C[C@@H]1COCCN1c1cc(C2([S@](C)(=N)=O)CC2)nc(-c2ccnc3[nH]ccc23)n1 [PCM-0215530]
inhibition at 10 µM [1]: -4.1%

COc1cc2c(cc1OC)CC(=O)N(CCCN(C)C[C@H]1Cc3cc(OC)c(OC)cc31)CC2 [PCM-0095255]
inhibition at 10 µM [1]: -3.1%

COc1cc(C=O)cc(OC)c1O [PCM-0215069]
inhibition at 10 µM [1]: -33.5%

CC(C)=CCC[C@](C)(O[C@@H]1O[C@H](CO)[C@@H](O)[C@H](O)[C@H]1O)[C@H]1CC[C@]2(C)[C@@H]1[C@H](O)C[C@@H]1[C@@]3(C)CC[C@H](O)C(C)(C)[C@@H]3CC[C@]12C [PCM-0216397]
inhibition at 10 µM [1]: 11.6%

N#Cc1c(O)c2c(-c3ccc(-c4ccccc4O)cc3)csc2[nH]c1=O [PCM-0095407]
inhibition at 10 µM [1]: 51.7%

O=C(CCCN1CCC(O)(c2ccc(Cl)cc2)CC1)c1ccc(F)cc1 [PCM-0065124]
inhibition at 10 µM [1]: -12.5%

O=C(O)CNC(=O)c1c(O)c2ccccc2n(Cc2ccccc2)c1=O [PCM-0095405]
inhibition at 10 µM [1]: -23.3%

CC(C)NCC(O)c1ccc(O)c(O)c1 (centres unmarked) [PCM-0065609]
inhibition at 10 µM [1]: 7%

Cc1cccc(CN2CCN(C(c3ccccc3)c3ccc(Cl)cc3)CC2)c1 (centres unmarked) [PCM-0086087]
inhibition at 10 µM [1]: 67.2%

Cn1c(=O)c(F)c(Nc2ccc(I)cc2F)c2c(=O)n(C[C@@H](O)CO)cnc21 [PCM-0095463]
inhibition at 10 µM [1]: 7.6%

Cc1onc(-c2ccccc2)c1-c1ccc(S(N)(=O)=O)cc1 [PCM-0095602]
inhibition at 10 µM [1]: -38.6%

Cc1cccc(Oc2cnc(=O)[nH]c2)c1 [PCM-0215674]
inhibition at 10 µM [1]: -17%

Nc1cc(F)ccc1NC(=O)/C=C/c1cnn(C/C=C/c2ccccc2)c1 [PCM-0095774]
inhibition at 10 µM [1]: 9.3%

CC(=O)[C@H]1CC[C@H]2[C@@H]3CCC4=CC(=O)CC[C@]4(C)[C@H]3CC[C@]12C [PCM-0064761]
inhibition at 10 µM [1]: -7.8%

OC[C@H]1O[C@@](CO)(OC[C@@]2(OC[C@@]3(OC[C@@]4(O[C@H]5O[C@H](CO)[C@@H](O)[C@H](O)[C@H]5O)O[C@H](CO)[C@@H](O)[C@@H]4O)O[C@H](CO)[C@@H](O)[C@@H]3O)O[C@H](CO)[C@@H](O)[C@@H]2O)[C@@H](O)[C@@H]1O [PCM-0216335]
inhibition at 10 µM [1]: 6.9%

CN(C)CCN(Cc1ccccc1)c1ccccn1 [PCM-0086274]
inhibition at 10 µM [1]: 12.8%

Cc1cc(C(N)=O)ccc1-n1c(CCC(=O)O)ccc1-c1ccc(-n2ccnc2)cc1 [PCM-0215346]
inhibition at 10 µM [1]: 6.9%

COc1cc(C(C)=O)ccc1OCCCN1CCC(c2noc3cc(F)ccc23)CC1 [PCM-0095163]
inhibition at 10 µM [1]: -16.3%

CC(=O)[C@@]1(O)CC[C@H]2[C@@H]3C[C@H](C)C4=CC(=O)CC[C@]4(C)[C@H]3CC[C@@]21C [PCM-0214898]
inhibition at 10 µM [1]: -7.8%

CN1C(CCl)Nc2cc(Cl)c(S(N)(=O)=O)cc2S1(=O)=O (centres unmarked) [PCM-0095604]
inhibition at 10 µM [1]: -2.3%

Cc1cc(NC(=O)c2cccc(NC(=O)/C=C/CN(C)C)c2)ccc1Nc1nccc(-c2cccnc2)n1 [PCM-0095741]
inhibition at 10 µM [1]: 9.7%

CNC(=O)c1ccc2cc([C@@]3(O)CCn4cncc43)ccc2c1 [PCM-0095080]
inhibition at 10 µM [1]: 3.1%

COC(=O)C1=CO[C@@H](O[C@@H]2O[C@H](CO)[C@@H](O)[C@H](O)[C@H]2O)[C@H]2[C@@H]1C(=O)C[C@@H]2C [PCM-0216534]
inhibition at 10 µM [1]: 6.9%

O=C1C(N(CO)C(=O)NCO)N(CO)C(=O)N1CO (centres unmarked) [PCM-0216098]
inhibition at 10 µM [1]: -5.4%

O=C(/C=C/c1ccc(O[C@@H]2O[C@H](CO)[C@@H](O)[C@H](O)[C@H]2O)cc1)c1ccc(O)cc1O [PCM-0216527]
inhibition at 10 µM [1]: 19.3%

O=C(O)CC(O)(CC(=O)OCc1ccc(O[C@@H]2O[C@H](CO)[C@@H](O)[C@H](O)[C@H]2O)cc1)C(=O)OCc1ccc(O[C@@H]2O[C@H](CO)[C@@H](O)[C@H](O)[C@H]2O)cc1 (some centres unmarked) [PCM-0216319]
inhibition at 10 µM [1]: -28.6%

CCNC(=O)CCC/C=C\C[C@@H]1[C@@H](/C=C/[C@@H](O)CCc2ccccc2)[C@H](O)C[C@@H]1O [PCM-0095085]
inhibition at 10 µM [1]: 15.2%

O=C(NCCN1CCOCC1)Nc1ccc(C(=O)/C=C/c2cccc(N3CCOCC3)n2)cc1 [PCM-0215849]
inhibition at 10 µM [1]: -0.8%

COc1cc(-c2coc3cc4c(c(OC)c3c2=O)OCO4)cc(OC)c1OC [PCM-0216353]
inhibition at 10 µM [1]: -9.3%

c1ccc2c(CC3=NCCN3)cccc2c1 [PCM-0085846]
inhibition at 10 µM [1]: -13.2%

Cc1c(Cn2c(C)nc3c(C(=O)O)cc(N4CCOCC4)cc32)cccc1C(F)(F)F [PCM-0095596]
inhibition at 10 µM [1]: -22.1%

C[C@H](NC(=O)CCC(F)(F)F)C(=O)N[C@@H]1C(=O)N(CCO)c2ncccc2-c2ccccc21 [PCM-0215760]
inhibition at 10 µM [1]: 15.4%

CN(Cc1cc(Br)cc(Br)c1N)C1CCCCC1 [PCM-0086201]
inhibition at 10 µM [1]: 29.6%

CCC(=O)NC[C@@H]1C[C@H]1c1cccc2c1CCO2 [PCM-0216634]
inhibition at 10 µM [1]: 3.9%

COC1[C@@H](O)[C@H](O)C(O)[C@H](O)[C@H]1O (some centres unmarked) [PCM-0216283]
inhibition at 10 µM [1]: 11.6%

O=C1OC(COc2ccccc2[N+](=O)[O-])CC1Cc1ccccc1 (centres unmarked) [PCM-0215840]
inhibition at 10 µM [1]: -3.1%

O=C(O)c1cn(-c2ccc(F)cc2)c2cc(N3CCNCC3)c(F)cc2c1=O [PCM-0086286]
inhibition at 10 µM [1]: -3.4%

COc1cc2c(cc1OC)[C@@H]1Cc3ccc(OC)c(OC)c3CN1CC2 [PCM-0094863]
inhibition at 10 µM [1]: 3.9%

Cc1cccc(C(C)c2cnc[nH]2)c1C (centres unmarked) [PCM-0095548]
inhibition at 10 µM [1]: -14.8%

O=C(O)CSc1nnc(Br)n1-c1ccc(C2CC2)c2ccccc12 [PCM-0214823]
inhibition at 10 µM [1]: -21.8%

CC1(C)C(=O)N(c2ccc(C#N)c(C(F)(F)F)c2)C(=O)N1CCCCO [PCM-0216095]
inhibition at 10 µM (read-out: BTK inhibition (%)): 11.6%

CN1C2=C3N=c4ccccc4=C3CCN2C(=O)c2ccccc21 [PCM-0214954]
inhibition at 10 µM [1]: 7%

NS(=O)(=O)NCCNc1nonc1C(=Nc1ccc(F)c(Br)c1)NO [PCM-0215507]
inhibition at 10 µM [1]: -3.1%

CCCc1cc(=O)[nH]c(=S)[nH]1 [PCM-0085981]
inhibition at 10 µM [1]: 3.1%

Cc1[nH]c2ccccc2c1CCNCc1ccc(/C=C/C(=O)NO)cc1 [PCM-0095679]
inhibition at 10 µM [1]: 0.8%

CC1=C(/C=C/C(C)=C/C=C/C(C)=C/C=C/C=C(C)/C=C/C=C(C)/C=C/C2=C(C)CCCC2(C)C)C(C)(C)CCC1 [PCM-0090171]
inhibition at 10 µM [1]: 24.7%

C=CC(=O)Nc1cccc(Oc2nc(Nc3ccc(N4CCN(C)CC4)cc3)nc3ccsc23)c1 [PCM-0215661]
inhibition at 10 µM [1]: 105%

NNc1nncc2ccccc12 [PCM-0065163]
inhibition at 10 µM [1]: -0.9%

C[C@]12CC[C@@H]3c4ccc(O)cc4CC[C@H]3[C@@H]1CCC2=O [PCM-0214644]
inhibition at 10 µM [1]: -4.8%

C[C@@H]1CC[C@@]2(OC1)O[C@H]1C[C@H]3[C@@H]4CC=C5C[C@@H](O[C@@H]6O[C@H](CO)[C@@H](O[C@@H]7O[C@@H](C)[C@H](O[C@@H]8O[C@@H](C)[C@H](O)[C@@H](O)[C@H]8O)[C@@H](O)[C@H]7O)[C@H](O)[C@H]6O[C@@H]6O[C@@H](C)[C@H](O)[C@@H](O)[C@H]6O)CC[C@]5(C)[C@H]4CC[C@]3(C)[C@@]1(O)[C@@H]2C [PCM-0216432]
inhibition at 10 µM [1]: -12.4%

Cc1nc(Nc2cnn(C3CCNCC3)c2)nc2c1N(C)C(=O)c1cc3ccccc3cc1N2C [PCM-0213384]
inhibition at 10 µM [1]: 30.3%

CC1Cc2ccccc2N1NC(=O)c1ccc(Cl)c(S(N)(=O)=O)c1 (centres unmarked) [PCM-0085884]
inhibition at 10 µM [1]: 6.2%

CCCCNc1cc(C(=O)O)cc(S(N)(=O)=O)c1Oc1ccccc1 [PCM-0064421]
inhibition at 10 µM [1]: -6.2%

CC(C)(O)c1coc(S(=O)(=O)NC(=O)Nc2c3c(cc4c2CCC4)CCC3)c1 [PCM-0215611]
inhibition at 10 µM [1]: -0.9%

C[C@@H]1C/C=C/C=C/C=C/C=C/[C@H](O[C@@H]2O[C@H](C)[C@@H](O)[C@H](N)[C@@H]2O)C[C@@H]2O[C@](O)(C[C@@H](O)C[C@H]3O[C@@H]3/C=C/C(=O)O1)C[C@H](O)[C@H]2C(=O)O [PCM-0214709]
inhibition at 10 µM [1]: -22.6%

COc1cc(C=O)ccc1OC(C)=O [PCM-0215077]
inhibition at 10 µM [1]: -10.1%

OC[C@H]1O[C@@H](Oc2cc(O)cc(/C=C/c3ccc(O[C@@H]4O[C@H](CO)[C@@H](O)[C@H](O)[C@H]4O)cc3O)c2)[C@H](O)[C@@H](O)[C@@H]1O [PCM-0216371]
inhibition at 10 µM [1]: -5.4%

COc1cc2nccc(Oc3ccc(NC(=O)Nc4ccc(F)cc4F)c(F)c3)c2cc1OC [PCM-0094996]
inhibition at 10 µM [1]: 4.8%

C=CC(=O)N1C/C(=C\c2ccc([N+](=O)[O-])cc2)C(=O)/C(=C/c2ccc([N+](=O)[O-])cc2)C1 [PCM-0214766]
inhibition at 10 µM [1]: -15.6%

CC1COC2(CCN(c3nc(=O)c4cc(C(F)(F)F)cc([N+](=O)[O-])c4s3)CC2)O1 (centres unmarked) [PCM-0095074]
inhibition at 10 µM [1]: 4.7%

COc1ccc(S(=O)(=O)N(C(C)=O)c2ccccc2/C=C/c2cc[n+]([O-])cc2)cc1 [PCM-0095165]
inhibition at 10 µM [1]: -18.6%

O=C(CCCCCN1C(=O)c2cccc3cccc(c23)C1=O)NO [PCM-0095631]
inhibition at 10 µM [1]: 7.7%

CCC[C@H](NC(=O)[C@@H]1[C@H]2CCC[C@H]2CN1C(=O)[C@@H](NC(=O)[C@@H](NC(=O)c1cnccn1)C1CCCCC1)C(C)(C)C)C(=O)C(=O)NC1CC1 [PCM-0214791]
inhibition at 10 µM [1]: -3.1%

CCN(CC)c1ccc2cc(-c3nc4ccccc4s3)c(=O)oc2c1 [PCM-0215963]
inhibition at 10 µM [1]: -5.1%

CN[C@@H]1[C@H](O[C@H]2[C@H](O[C@H]3[C@H](O)[C@@H](O)[C@H](N=C(N)N)[C@@H](O)[C@@H]3N=C(N)N)O[C@@H](C)[C@]2(O)C=O)O[C@@H](CO)[C@H](O)[C@H]1O [PCM-0215192]
inhibition at 10 µM [1]: -10.2%

CNc1ncc2cc(-c3cc(NC(=O)NCCC(C)(C)C)c(F)cc3C)c(C)nc2n1 [PCM-0215477]
inhibition at 10 µM [1]: 40.9%

CN1C(C(=O)Nc2ccccn2)=C(O)c2sc(Cl)cc2S1(=O)=O [PCM-0090258]
inhibition at 10 µM [1]: -0.9%
